Assay results reported in patent publication US11021481B2, “Substituted isoindolin-1-ones and 2,3-dihydro-1h-pyrrolo[3,4-c]pyridin-1-ones as HPK1 antagonists” (Nimbus Saturn, Inc., priority 2019, dated 2021).

Each compound was assayed against HPK1 (Homo sapiens (Human), UniProt Q92918) (assay: HPK1 biochemical enzyme assay (microfluidic mobility shift assay)). Settings: 1.5 nM HPK1, ATP 1 mM final, 30 min preincubation, 60 min at RT, Caliper EZ Reader; read-out: HPK1 1000UMATP caliper IC50.
In short: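 Ten-point compound titrations (top 3 μM final) preincubated 30 min with HPK1 and substrate, then reaction started with 1 mM ATP and 1 μM substrate, 5 mM MgCl2. After 60 min at RT, reaction terminated and product measured by microfluidic mobility shift.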

Chain of HPK1 (Q92918 whole entry): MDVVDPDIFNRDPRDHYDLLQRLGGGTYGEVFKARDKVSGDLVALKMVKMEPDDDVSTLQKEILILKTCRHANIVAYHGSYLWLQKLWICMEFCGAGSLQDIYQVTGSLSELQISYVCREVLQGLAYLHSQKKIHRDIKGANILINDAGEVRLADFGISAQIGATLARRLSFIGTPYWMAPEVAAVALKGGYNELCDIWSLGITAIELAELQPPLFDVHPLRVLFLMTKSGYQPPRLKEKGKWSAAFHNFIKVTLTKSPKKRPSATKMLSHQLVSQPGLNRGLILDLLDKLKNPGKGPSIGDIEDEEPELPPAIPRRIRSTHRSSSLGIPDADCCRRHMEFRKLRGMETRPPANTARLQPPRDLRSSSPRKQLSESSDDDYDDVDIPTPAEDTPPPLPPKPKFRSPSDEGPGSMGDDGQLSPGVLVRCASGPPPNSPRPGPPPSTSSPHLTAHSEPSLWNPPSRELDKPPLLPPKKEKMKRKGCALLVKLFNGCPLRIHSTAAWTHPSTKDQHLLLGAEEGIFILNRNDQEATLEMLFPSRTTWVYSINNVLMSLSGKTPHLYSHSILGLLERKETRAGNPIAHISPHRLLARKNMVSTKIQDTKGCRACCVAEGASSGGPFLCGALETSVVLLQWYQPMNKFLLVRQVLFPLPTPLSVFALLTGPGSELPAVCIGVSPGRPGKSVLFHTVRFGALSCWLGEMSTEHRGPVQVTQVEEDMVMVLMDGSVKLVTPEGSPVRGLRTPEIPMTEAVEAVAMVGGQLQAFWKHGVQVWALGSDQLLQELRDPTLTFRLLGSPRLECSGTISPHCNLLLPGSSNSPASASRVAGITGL

Row | Compound | IC50 [nM]
1 | CN(C)Cc1nc(Nc2ccc(-c3cnc4cc(F)ccn34)c3c2C(=O)NC3)ccc1[C@H]1CCCO1 [I-554, (R)-7-((6-((dimethylamino)-methyl)-5-(tetrahydrofuran-2-yl)pyridin-2-yl)amino)-4-(7-fluoroimidazo [1,2-a]pyridin-3-yl)isoindolin-1-one] | < 100
2 | COc1ccc2c(-c3ccc(Nc4ccc(N5CCN(C)CC5)cn4)c4c3CNC4=O)c[nH]c2c1 [I-28, 4-(6-methoxy-1H-indol-3-yl)-7-[[5-(4-methylpiperazin-1-yl)-2-pyridyl]amino] isoindolin-1-one] | < 100
3 | CN1CCN(c2ccc(Nc3cnc(-c4c[nH]c5ncccc45)c4c3C(=O)NC4)nc2)CC1 [I-6, 7-((5-(4-Methylpiperazin-1-yl)pyridin-2-yl)amino)-4-(1H-pyrrolo[2,3-b]pyridin-3-yl)-2,3-dihydro-1H-pyrrolo[3,4-c]pyridin-1-one] | < 100
4 | CNC1CCN(c2ccc(Nc3ccc(-c4cnc5ccccn45)c4c3C(=O)NC4)nc2)CC1 [I-58, 4-imidazo[1,2-a]pyridin-3-yl-7-[[5-[4-(methylamino)-1-piperidyl]-2-pyridyl]amino] isoindolin-1-one] | < 100
5 | COc1cc(Nc2cnc(-c3ccnc4c3ccn4C)c3c2C(=O)NC3)nc(N2CC[C@@H]3CNC[C@@H]32)c1 [I-682, 7-((6-((3aR,6aR)-hexahydro-pyrrolo[3,4-b]pyrrol-l(2H)-yl)-4-methoxypyridin-2-yl)amino)-4-(1-methyl-1H-pyrrolo[2,3-b]pyridin-4-yl)-2,3-dihydro-1H-pyrrolo[3,4-c]pyridin-1-one] | 100 to 1000
6 | CNC1CCN(c2cccc(Nc3cnc(-c4ccnc5c4ccn5C)c4c3C(=O)NC4)n2)CC1 [I-228, 7-[[6-[4-(methylamino)-1-piperidyl]-2-pyridyl]amino]-4-(1-methylpyrrolo [2,3-b]pyridin-4-yl)-2,3-dihydropyrrolo [3,4-c]pyridin-1-one] | 100 to 1000
7 | CC1(O)CCN(c2ccc(Nc3ccc(-c4cnc5cnccn45)c4c3C(=O)NC4)nc2)CC1 [I-313, 7-((5-(4-hydroxy-4-methylpiperidin-1-yl)pyridin-2-yl)amino)-4-(imidazo[1,2-a]pyrazin-3-yl)isoindolin-1-one] | < 100
8 | CN(C)CCc1nc(Nc2ccc(-c3cnc4cc(F)ccn34)c3c2C(=O)NC3)ccc1C1CCOCC1 [I-838, 7-((6-(2-(dimethylami-no)ethyl)-5-(tetrahydro-2H-pyran-4-yl)pyridin-2-yl)amino)-4-(7-fluoroimidazo [1,2-a]pyridin-3-yl)isoindolin-1-one] | < 100
9 | O=C1NCc2c(-c3cnn4c3CCCC4)ncc(Nc3ccc(N4CCOCC4)cn3)c21 [I-367, 7-((5-morpholinopyridin-2-yl)amino)-4-(4,5,6,7-tetrahdropyra-zolo[1,5-a]pyridin-3-yl)-2,3-dihydro-1H-pyrrolo[3,4-c]pyridin-1-one] | < 100
10 | CN(C)Cc1nc(Nc2ccc(-c3cnc4cc(F)ccn34)c3c2C(=O)NC3)cnc1[C@H]1CCOC1 [I-800, (R)-7-((6-((dimethylamino)-methyl)-5-(tetrahydrofuran-3-yl)pyrazin-2-yl)amino)-4-(7-fluoroimidazo [1,2-a]pyridin-3-yl)isoindolin-1-one] | < 100
11 | Cn1ccc2c(-c3c(F)cc(Nc4ccc(N5CCC(O)CC5)cn4)c4c3CNC4=O)ccnc21 [I-197, 5-fluoro-7-[[5-(4-hydroxy-1-piperidyl)-2-pyridyl]amino]-4-(1-methylpyrrolo[2,3-b]pyridin-4-yl)isoindolin-1-one] | < 100
12 | C[C@@H]1CC[C@](C)(O)CN1c1ccc(Nc2ccc(-c3cnn4c3CCCC4)c3c2C(=O)NC3)nc1 (stereo in doubt) [I-597, 7-((5-((2S,5S)-5-hydroxy-2,5-dimethyl-piperidin-1-yl)pyridin-2-yl)amino)-4-(4,5,6,7-tetrahydropyra-zolo[1,5-a]pyridin-3-yl)isoindolin-1-one] | < 100
13 | CC(C)(O)C1CCN(c2ccc(Nc3ccc(-c4cnc5cc(F)ccn45)c4c3C(=O)NC4)nc2)CC1 [I-224] | < 100
14 | O=C1NCc2c(-c3cnc4cnccn34)ccc(Nc3ccc(N4CCCC(O)CC4)cn3)c21 (stereo not shown) [I-301, 7-((5-(4-hydroxyaze-pan-1-yl)pyridin-2-yl)amino)-4-(imidazo[1,2-a]pyrazin-3-yl)isoindolin-1-one] | < 100
15 | Cc1cc2[nH]cc(-c3ccc(Nc4ccc(N5CCN(C)CC5)cn4)c4c3CNC4=O)c2cn1 [I-37, 7-[[5-(4-methylpiperazin-1-yl)-2-pyridyl]amino]-4-(6-methyl-1H-pyrrolo[3,2-c]pyridin-3-yl)isoindolin-1-one] | < 100
16 | CN(C)C(C)(C)C1CN(c2ccc(Nc3ccc(-c4cnc5cc(F)ccn45)c4c3C(=O)NC4)nc2)CCO1 (stereo in doubt) [I-591, (S)-7-((5-(2-(2-(dimethylami-no)propan-2-yl)morpho-lino)pyridin-2-yl)amino)-4-(7-fluoroimidazo [1,2-a]pyridin-3-yl)isoindolin-l-one] | < 100

Row | Compound | IC50 [nM]
17 | CN1CCO[C@@]2(CCCN(c3ccc(Nc4ccc(-c5cnc6cc(F)ccn56)c5c4C(=O)NC5)nc3)C2)C1 [I-506, (S)-4-(7-fluoroimidazo [1,2-a]pyridin-3-yl)-7-((5-(4-methyl-1-oxa-4,8-diazaspiro[5.5]undecan-8-yl)pyridin-2-yl)amino)isoin-dolin-1-one] | < 100
18 | CN(C)Cc1nc(Nc2cnc(-c3ccnc4c3ccn4C)c3c2C(=O)NC3)ccc1N1CCC(O)CC1 [I-776, 7-((6-((dimethylamino)-methyl)-5-(4-hydroxypiperidin-1-yl)pyridin-2-yl)amino)-4-(1-methyl-1H-pyrrolo[2,3-b]pyridin-4-yl)-2,3-dihydro-1H-pyrrolo[3,4-c]pyridin-1-one] | < 100
19 | CN1CCN(c2ccc(Nc3cnc(-c4ccnc5c4ccn5C)c4c3C(=O)NC4)nc2)CC1 [I-18, 7-[[5-(4-methylpiperazin-1-yl)-2-pyridyl]amino]-4-(1-methylpyrrolo [2,3-b]pyridin-4-yl)-2,3-dihydropyrrolo [3,4-c]pyridin-1-one] | < 100
20 | 7-[[6- [(dimethylamino)- methyl]-5- tetrahydrofuran- 3-yl-2- pyridyl]amino]- 4-(7- methylimidazo [1,2-a]pyrimidin-3- yl)isoindolin- 1-one [I-846] | < 100
21 | CCN(CC)Cc1nc(Nc2ccc(-c3cnc4cc(F)ccn34)c3c2C(=O)NC3)ccc1C1CCOC1 (stereo not shown) [I-504, 7-[[6-(diethylaminomethyl)-5-tetrahydrofuran-3-yl-2-pyridyl]amino]-4-(7-fluoroimidazo [1,2-a]pyridin-3-yl)isoindolin-1-one] | < 100
22 | CN1CC(O)(C2CCCN(c3ccc(Nc4ccc(-c5cnc6cc(F)ccn56)c5c4C(=O)NC5)nc3)C2)C1 (stereo in doubt) [I-679, (S)-4-(7-fluoroimidazo [1,2-a]pyridin-3-yl)-7-((5-(3-(3-hydroxy-1-methylazetidin-3-yl)piperidin-1-yl)pyridin-2-yl)amino)isoin-dolin-1-one] | < 100
23 | Cn1ccc2c(-c3ncc(Nc4ccc(N5CCO[C@H](C(C)(C)O)C5)cn4)c4c3CNC4=O)cccc21 [I-484, 7-[[5-[(2S)-2-(1-hydroxy-1-methyl-ethyl)morpholin-4-yl]-2-pyridyl]amino]-4-(1-methylindol-4-yl)-2,3-dihydropyrrolo [3,4-c]pyridin-l-one] | < 100
24 | Cn1ccc2c(-c3ccc(Nc4ccc(N5CC[C@H](O)C5)cn4)c4c3CNC4=O)ccnc21 [I-285, (S)-7-((5-(3-hydroxy-pyrrolidin-1-yl)pyridin-2-yl)amino)-4-(1-methyl-1H-pyrrolo[2,3-b]pyridin-4-yl)isoindolin-1-one] | < 100
25 | Cc1ccn2c(-c3ccc(Nc4ccc(S(C)(=O)=O)cn4)c4c3CNC4=O)cnc2c1 [I-148, 4-(7-methylimidazo [1,2-a]pyridin-3-yl)-7-[(5-methylsulfony 1-2-pyridyl)amino] isoindolin-1-one] | < 100
26 | CN(C)CC1(O)CCCN(c2ccc(Nc3ccc(-c4cnc5cc(F)ccn45)c4c3C(=O)NC4)nc2)C1 (stereo not shown) [I-385, 7-((5-(3-((dimethylamino)-methyl)-3-hydroxypiperidin-1-yl)pyridin-2-yl)amino)-4-(7-fluoroimidazo [1,2-a]pyridin-3-yl)isoindolin-1-one] | < 100
27 | CO[C@@]1(CN(C)C)CCCN(c2ccc(Nc3ccc(-c4cnc5cc(F)ccn45)c4c3C(=O)NC4)nc2)C1 [I-611, (R)-7-((5-(3-((dimethylamino)-methyl)-3-methoxy-piperidin-1-yl)pyridin-2-yl)amino)-4-(7-fluoroimidazo [1,2-a]pyridin-3-yl)isoindolin-1-one] | < 100
28 | CN1CCO[C@]2(CCCN(c3ccc(Nc4ccc(-c5cnc6cc(F)ccn56)c5c4C(=O)NC5)nc3)C2)C1 [I-506a, (R)-4-(7-fluoroimidazo [1,2-a]pyridin-3-yl)-7-((5-(4-methyl-1-oxa-4,8-diazaspiro[5.5]undecan-8-yl)pyridin-2-yl)amino)isoin-dolin-1-one] | < 100
29 | O=C1NCc2c(-c3cnc4cc(F)ccn34)ccc(Nc3ccc(N4CCO[C@H](CN5CC(F)C5)C4)cn3)c21 [I-482, 7-[[5-[(2R)-2-[(3-fluoroazetidin-1-yl)methyl]mor pholin-4-yl]-2-pyridyl]amino] 4-(7-fluoroimidazo [1,2-a]pyridin-3-yl)isoindolin-1-one] | < 100
30 | O=C1NCc2c(-c3cnc4cc(F)ccn34)ccc(Nc3ccc(N4CC[C@@H](F)[C@H](O)C4)cn3)c21 [I-347, 7-((5-((3R,4R)-4-fluoro-3-hydroxy-piperidin-1-yl)pyridin-2-yl)amino)-4-(7-fluoroimidazo [1,2-a]pyridin-3-yl)isoindolin-1-one] | < 100
31 | CN1CCN(CC2(O)CCN(c3ccc(Nc4ccc(-c5cnc6cc(Cl)ccn56)c5c4C(=O)NC5)nc3)CC2)CC1 [I-437, 4-(7-chloroimidazo [1,2-a]pyridin-3-yl)-7-((5-(4-hydroxy-4-((4-methylpiperazin-1-yl)methyl)piper-idin-1-yl)pyridin-2-yl)amino)isoin-dolin-1-one] | < 100
